The text below walks through data of ChEMBL document CHEMBL1147064 (Proc Natl Acad Sci U S A, 2007).

In general, IC50 refers to the point on the concentration scale where inhibition reaches its midpoint. Read a low IC50 as inhibition by little substance.

Data set [1] in a line: Toxicity against mouse Neuro2a cells at =>5 uM. The format is cell-based. The note with it: n2a.
Data set [2] has as its target Botulinum neurotoxin type A (Clostridium botulinum, UniProt P0DPI0).

Botulinum neurotoxin type A, sequence (P0DPI0 2-448 limits assumed): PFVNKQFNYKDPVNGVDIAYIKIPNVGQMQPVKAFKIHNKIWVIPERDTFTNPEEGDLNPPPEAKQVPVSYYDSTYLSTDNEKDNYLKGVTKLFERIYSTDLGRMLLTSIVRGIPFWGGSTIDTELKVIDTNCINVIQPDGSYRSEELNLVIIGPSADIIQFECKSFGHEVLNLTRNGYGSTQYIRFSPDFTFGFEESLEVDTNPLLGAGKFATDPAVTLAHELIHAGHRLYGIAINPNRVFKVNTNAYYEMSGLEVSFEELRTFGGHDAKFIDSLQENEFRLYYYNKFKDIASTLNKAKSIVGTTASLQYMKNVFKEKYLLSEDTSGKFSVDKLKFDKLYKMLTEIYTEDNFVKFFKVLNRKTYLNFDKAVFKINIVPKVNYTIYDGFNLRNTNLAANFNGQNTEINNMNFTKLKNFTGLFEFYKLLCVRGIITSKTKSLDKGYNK

For the compound `O=C(/C=C/c1ccc(Cl)cc1Cl)NO` [CINNAMIC ACID HYDROXAMATE], the Activity result in data set [1] is “Toxic”.

In data set [2], `COc1ccc(CCNC(=O)CN(CC(=O)N[C@H]2C[C@@H]2c2ccccc2)C(=O)Cn2c(C(=O)N[C@H]3CCCC[C@@H]3NC(=O)c3cc4ccccc4n3CC(=O)N(CC(=O)NCCc3ccc(OC)cc3)CC(=O)N[C@@H]3C[C@H]3c3ccccc3)cc3ccccc32)cc1` came in with a concentration for half-maximal inhibition (IC50) of 7.6 µM.

Compound `CCC1CN(C(=O)/C=C/c2ccccc2)CC(=O)N1Cc1ccc(C)cc1` (stereo not drawn) came in with an IC50 in data set [2] of 12.5 µM. Compared with the last compound, the IC50 is about 1.6-fold higher.
